In general, Dmax refers to the largest share of the target that was removed. High values mean a fuller loss of target, low ones a partial loss of target. By Ki is commonly meant the dissociation constant of the complex between target and ligand, obtained from inhibition or displacement.

Dmax and Ki data for 26 compounds are collected here from US20250263395A1, “COMPOUNDS THAT MEDIATE PROTEIN DEGRADATION AND METHODS OF USE THEREOF” (Monte Rosa Therapeutics AG, priority 2022, published 2025).

For one experiment, the target named is CDK2 (Homo sapiens (Human), UniProt P24941). The experiment is described as follows: CDK2 NanoBiT assay (HiBiT-tagged CDK2 degradation). The format is cell-based. The note with it: HEK293, HEK293 clonal line, C-terminal HiBiT tag on CDK2, LgBiT; 24 hours. Summed up:
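HEK293 line with CRISPR knock-in C-terminal HiBiT-tagged CDK2 and stable LgBiT, preincubated 16 h with live-cell substrate, then compound-treated 24 h at 37° C, 5% CO2 (30 μM stock). Luminescence normalized to plate negative and positive controls; EC50 from 3-parameter logistic fit, Hill slope 1.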

For a further experiment, the target named is CRBN-DDB1 (Homo sapiens (Human), UniProt Q96SW2). The experiment is described as follows: CRBN HTRF assay (Cy5-Thalidomide probe displacement). The format is binding. The note with it: CRBN-DDB1 2.5 nM, Cy5-Thalidomide 100 nM, 30 min; Ki from geometric mean IC50 by Cheng-Prusoff. Summed up:
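HTRF displacement of Cy5-thalidomide probe (100 nM) from His-CRBN-DDB1 (2.5 nM) with anti-His terbium cryptate, in HEPES/NaCl/TCEP/EDTA/Tween20 buffer. 10-point 1:3 compound series, 30 min at ambient temperature; signal normalised to DMSO and lenalidomide controls, IC50 fitted and Ki derived by Cheng-Prusoff.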
(In general: Time-resolved FRET reads energy transfer from a long-lived donor to a nearby acceptor.)

Where only a bound is given, the exact number is not on record here.

Chain of CRBN-DDB1 (Q96SW2 whole entry): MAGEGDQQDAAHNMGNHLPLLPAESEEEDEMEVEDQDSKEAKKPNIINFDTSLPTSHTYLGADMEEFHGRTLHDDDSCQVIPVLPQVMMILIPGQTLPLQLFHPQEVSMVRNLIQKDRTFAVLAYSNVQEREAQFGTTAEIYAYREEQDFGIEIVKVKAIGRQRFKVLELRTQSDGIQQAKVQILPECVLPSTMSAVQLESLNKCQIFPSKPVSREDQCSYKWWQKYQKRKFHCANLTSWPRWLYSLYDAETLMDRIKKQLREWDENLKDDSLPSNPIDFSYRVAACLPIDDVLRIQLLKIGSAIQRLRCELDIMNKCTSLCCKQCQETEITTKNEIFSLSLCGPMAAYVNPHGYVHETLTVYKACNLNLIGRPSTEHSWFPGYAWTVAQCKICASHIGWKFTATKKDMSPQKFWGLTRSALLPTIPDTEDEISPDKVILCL
Chain of CRBN-DDB1 (Q16531 whole entry partner): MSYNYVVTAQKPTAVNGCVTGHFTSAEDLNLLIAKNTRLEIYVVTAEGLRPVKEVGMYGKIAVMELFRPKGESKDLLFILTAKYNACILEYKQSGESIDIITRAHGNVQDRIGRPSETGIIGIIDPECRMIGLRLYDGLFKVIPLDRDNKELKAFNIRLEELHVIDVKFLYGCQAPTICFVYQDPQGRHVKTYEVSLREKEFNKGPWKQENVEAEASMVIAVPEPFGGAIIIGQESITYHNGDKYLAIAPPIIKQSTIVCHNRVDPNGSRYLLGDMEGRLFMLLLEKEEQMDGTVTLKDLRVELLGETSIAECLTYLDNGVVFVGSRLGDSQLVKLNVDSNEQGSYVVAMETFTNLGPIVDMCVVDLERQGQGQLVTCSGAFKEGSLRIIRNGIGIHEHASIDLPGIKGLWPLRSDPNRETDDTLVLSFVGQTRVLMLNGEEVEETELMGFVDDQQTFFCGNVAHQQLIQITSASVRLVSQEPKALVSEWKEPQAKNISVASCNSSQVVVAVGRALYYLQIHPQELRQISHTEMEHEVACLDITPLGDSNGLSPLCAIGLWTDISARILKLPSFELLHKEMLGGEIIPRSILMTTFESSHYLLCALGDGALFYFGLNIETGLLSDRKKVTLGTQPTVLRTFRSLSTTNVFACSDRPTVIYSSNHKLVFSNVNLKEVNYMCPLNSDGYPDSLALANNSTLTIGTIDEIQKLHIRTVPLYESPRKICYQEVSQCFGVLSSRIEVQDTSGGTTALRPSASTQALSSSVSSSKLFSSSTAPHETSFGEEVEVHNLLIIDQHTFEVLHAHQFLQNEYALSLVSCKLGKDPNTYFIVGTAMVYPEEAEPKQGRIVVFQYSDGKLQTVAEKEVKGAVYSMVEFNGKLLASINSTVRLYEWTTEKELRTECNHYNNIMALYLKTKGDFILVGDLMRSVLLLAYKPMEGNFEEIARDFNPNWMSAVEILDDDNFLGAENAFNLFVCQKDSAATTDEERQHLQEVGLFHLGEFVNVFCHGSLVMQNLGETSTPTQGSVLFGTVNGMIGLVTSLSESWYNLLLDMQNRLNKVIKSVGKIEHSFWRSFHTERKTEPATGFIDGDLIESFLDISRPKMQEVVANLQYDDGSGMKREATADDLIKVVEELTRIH

`O=C1CCC(c2ccc(N3CC(NC(=O)OCC4CC5(CCC5)C4)C3)cc2F)C(=O)N1` (stereo not shown) [Compound 59, spiro[3.3]heptan-2-ylmethyl (1-(4-(2,6-dioxopiperidin-3-yl)-3-fluorophenyl)azetidin-3-yl)carbamate]: the Dmax at CDK2 is greater than 80%. The Ki at CRBN-DDB1 was no more than 100 nM.
Turning to `O=C1CCC(c2ccc(N3CC(NC(=O)OCC4CC5(CCC5)C4)C3)cc2Cl)C(=O)N1` (stereo not shown) [Compound 60, spiro[3.3]heptan-2-ylmethyl (1-(3-chloro-4-(2,6-dioxopiperidin-3-yl)phenyl)azetidin-3-yl)carbamate], the Dmax at CDK2 was greater than 80%. Moreover, on CRBN-DDB1, the Ki was no more than 100 nM.
`O=C1CCC(c2c(F)cc(N3CC[C@H](NC(=O)OCC4CC5(CCC5)C4)C3)cc2F)C(=O)N1` (stereo partly drawn) [Compound 61, spiro[3.3]heptan-2-ylmethyl ((3S)-1-(4-(2,6-dioxopiperidin-3-yl)-3,5-difluorophenyl)pyrrolidin-3-yl)carbamate]: the Dmax on CDK2 was greater than 80%. This compound yielded a Ki on CRBN-DDB1 of 100 to 1000 nM.
The corresponding values for `O=C1CCC(c2ccc(N3CC(NC(=O)OCC4CC5(CCC5)C4)C3)cc2)C(=O)N1` (stereo not shown) [Compound 62, spiro[3.3]heptan-2-ylmethyl (1-(4-(2,6-dioxopiperidin-3-yl)phenyl)azetidin-3-yl)carbamate] are greater than 80% and 100 to 1000 nM.
With `COc1c(N2CC(NC(=O)OCC3CC4(CCC4)C3)C2)ccc(C2CCC(=O)NC2=O)c1Cl` (stereo not shown) [Compound 63, spiro[3.3]heptan-2-ylmethyl (1-(3-chloro-4-(2,6-dioxopiperidin-3-yl)-2-methoxyphenyl)azetidin-3-yl)carbamate], the Dmax on CDK2 was greater than 80%. Besides, the Ki at CRBN-DDB1 was in the range of 100 to 1000 nM.
The corresponding values for `O=C1CCC(c2c(F)cc(N3CC[C@@H](NC(=O)OCC4CC5(CCC5)C4)C3)cc2F)C(=O)N1` (stereo partly drawn) [Compound 64, spiro[3.3]heptan-2-ylmethyl ((3R)-1-(4-(2,6-dioxopiperidin-3-yl)-3,5-difluorophenyl)pyrrolidin-3-yl)carbamate] are greater than 80% and no more than 100 nM.
At CDK2, `CC(C)(CCOC(=O)NC1CN(c2cc(F)c(C3CCC(=O)NC3=O)c(F)c2)C1)C1CC1` (stereo not shown) [Compound 65, 3-cyclopropyl-3-methylbutyl (1-(4-(2,6-dioxopiperidin-3-yl)-3,5-difluorophenyl)azetidin-3-yl)carbamate] displayed a Dmax greater than 80%. On CRBN-DDB1, this compound showed a Ki of no more than 100 nM.
In the case of `CC1(CCCOC(=O)NC2CN(c3cc(F)c(C4CCC(=O)NC4=O)c(F)c3)C2)CC1` (stereo not shown) [Compound 66, 3-(1-methylcyclopropyl)propyl (1-(4-(2,6-dioxopiperidin-3-yl)-3,5-difluorophenyl)azetidin-3-yl)carbamate], the Dmax on CDK2 was greater than 80%. This compound returned a Ki on CRBN-DDB1 of no more than 100 nM.
Turning to `O=C1CCC(c2c(F)cc(N3CC(NC(=O)OC4CC5(CCCCC5)C4)C3)cc2F)C(=O)N1` (stereo not shown) [Compound 67, spiro[3.5]nonan-2-yl (1-(4-(2,6-dioxopiperidin-3-yl)-3,5-difluorophenyl)azetidin-3-yl)carbamate], at CDK2, the Dmax was greater than 80%. The same compound registered an inhibition constant (Ki) at CRBN-DDB1 of no more than 100 nM.
Compound `CC(C)C1CC(COC(=O)NC2CN(c3cc(F)c(C4CCC(=O)NC4=O)c(F)c3)C2)C1` (stereo not shown) [Compound 68, (3-isopropylcyclobutyl)methyl (1-(4-(2,6-dioxopiperidin-3-yl)-3,5-difluorophenyl)azetidin-3-yl)carbamate] showed a Dmax at CDK2 greater than 80%. Moreover, the Ki on CRBN-DDB1 was 100 to 1000 nM.
The corresponding values for `O=C1CCC(c2c(F)cc(N3CC(NC(=O)OC4CN(c5nc6ccccc6o5)C4)C3)cc2F)C(=O)N1` (stereo not shown) [Compound 69, 1-(benzo[d]oxazol-2-yl)azetidin-3-yl (1-(4-(2,6-dioxopiperidin-3-yl)-3,5-difluorophenyl)azetidin-3-yl)carbamate] are 50 to 80% and no more than 100 nM.
In the case of `Cc1ccccc1N(C)C(=O)N1CC(OC(=O)NC2CN(c3cc(F)c(C4CCC(=O)NC4=O)c(F)c3)C2)C1` (stereo not shown) [Compound 70, 1-(methyl(o-tolyl)carbamoyl)azetidin-3-yl (1-(4-(2,6-dioxopiperidin-3-yl)-3,5-difluorophenyl)azetidin-3-yl)carbamate], the Dmax at CDK2 fell in the range of 50 to 80%. On CRBN-DDB1, this compound registered a Ki of no more than 100 nM.
The compound `CN(C(=O)N1CC(OC(=O)NC2CN(c3cc(F)c(C4CCC(=O)NC4=O)c(F)c3)C2)C1)c1ccccc1Cl` (stereo not shown) [Compound 71, 1-((2-chlorophenyl)(methyl)carbamoyl)azetidin-3-yl (1-(4-(2,6-dioxopiperidin-3-yl)-3,5-difluorophenyl)azetidin-3-yl)carbamate] returned a Dmax on CDK2 of 50 to 80%. Moreover, at CRBN-DDB1, the Ki was no more than 100 nM.
For the compound `CN(C(=O)N1CC(OC(=O)NC2CN(c3cc(F)c(C4CCC(=O)NC4=O)c(F)c3)C2)C1)c1ccc(F)cc1` (stereo not shown) [Compound 72, 1-((4-fluorophenyl)(methyl)carbamoyl)azetidin-3-yl (1-(4-(2,6-dioxopiperidin-3-yl)-3,5-difluorophenyl)azetidin-3-yl)carbamate], the Dmax on CDK2 was greater than 80%. Besides, the Ki at CRBN-DDB1 was no more than 100 nM.
`CN(C(=O)N1CC(OC(=O)NC2CN(c3cc(F)c(C4CCC(=O)NC4=O)c(F)c3)C2)C1)c1ccc(C#N)cc1` (stereo not shown) [Compound 73, 1-((4-cyanophenyl)(methyl)carbamoyl)azetidin-3-yl (1-(4-(2,6-dioxopiperidin-3-yl)-3,5-difluorophenyl)azetidin-3-yl)carbamate] registered a Dmax at CDK2 of 50 to 80%. In addition, the Ki at CRBN-DDB1 is no more than 100 nM.
`O=C1CCC(c2c(F)cc(N3CC(NC(=O)OC4CN(C(=O)Cc5ccccc5)C4)C3)cc2F)C(=O)N1` (stereo not shown) [Compound 74, 1-(2-phenylacetyl)azetidin-3-yl (1-(4-(2,6-dioxopiperidin-3-yl)-3,5-difluorophenyl)azetidin-3-yl)carbamate]: the Dmax on CDK2 was 50 to 80%. Also, at CRBN-DDB1, the Ki is no more than 100 nM.
The corresponding values for `Cn1c(N2CC(OC(=O)NC3CN(c4cc(F)c(C5CCC(=O)NC5=O)c(F)c4)C3)C2)nc2ccccc21` (stereo not shown) [Compound 75, 1-(1-methyl-1H-benzo[d]imidazol-2-yl)azetidin-3-yl (1-(4-(2,6-dioxopiperidin-3-yl)-3,5-difluorophenyl)azetidin-3-yl)carbamate] are 50 to 80% and no more than 100 nM.
Take `CN(C)C(=O)C12CC(OC(=O)NC3CN(c4cc(F)c(C5CCC(=O)NC5=O)c(F)c4)C3)(C1)C2` (stereo not shown) [Compound 76, 3-(dimethylcarbamoyl)bicyclo[1.1.1]pentan-1-yl (1-(4-(2,6-dioxopiperidin-3-yl)-3,5-difluorophenyl)azetidin-3-yl)carbamate]: the Dmax at CDK2 was in the range of 10 to 50%. The same compound displayed a Ki at CRBN-DDB1 of no more than 100 nM.
The corresponding values for `Cn1ccnc1N1CC(OC(=O)NC2CN(c3cc(F)c(C4CCC(=O)NC4=O)c(F)c3)C2)C1` (stereo not shown) [Compound 77, 1-(1-methyl-1H-imidazol-2-yl)azetidin-3-yl (1-(4-(2,6-dioxopiperidin-3-yl)-3,5-difluorophenyl)azetidin-3-yl)carbamate] are 10 to 50% and no more than 100 nM.
Compound `CN(C(=O)C12CC(OC(=O)NC3CN(c4cc(F)c(C5CCC(=O)NC5=O)c(F)c4)C3)(C1)C2)C1CC1` (stereo not shown) [Compound 78, 3-(cyclopropyl(methyl)carbamoyl)bicyclo[1.1.1]pentan-1-yl (1-(4-(2,6-dioxopiperidin-3-yl)-3,5-difluorophenyl)azetidin-3-yl)carbamate] came in with a maximal degradation (Dmax) at CDK2 of 50 to 80%. In addition, the Ki on CRBN-DDB1 is no more than 100 nM.
For the compound `Cc1ccc(N2CC(OC(=O)NC3CN(c4cc(F)c(C5CCC(=O)NC5=O)c(F)c4)C3)C2)nc1` (stereo not shown) [Compound 79, 1-(5-methylpyridin-2-yl)azetidin-3-yl (1-(4-(2,6-dioxopiperidin-3-yl)-3,5-difluorophenyl)azetidin-3-yl)carbamate], the Dmax at CDK2 lay within 50 to 80%. Also, at CRBN-DDB1, the Ki is no more than 100 nM.
`Cc1cccc(N2CC(OC(=O)NC3CN(c4cc(F)c(C5CCC(=O)NC5=O)c(F)c4)C3)C2)n1` (stereo not shown) [Compound 80, 1-(6-methylpyridin-2-yl)azetidin-3-yl (1-(4-(2,6-dioxopiperidin-3-yl)-3,5-difluorophenyl)azetidin-3-yl)carbamate] showed a Dmax at CDK2 of 50 to 80%. Further, the Ki at CRBN-DDB1 is no more than 100 nM.
The corresponding values for `CN(C(=O)C12CC(OC(=O)NC3CN(c4cc(F)c(C5CCC(=O)NC5=O)c(F)c4)C3)(C1)C2)c1ccccc1` (stereo not shown) [Compound 81, 3-(methyl(phenyl)carbamoyl)bicyclo[1.1.1]pentan-1-yl (1-(4-(2,6-dioxopiperidin-3-yl)-3,5-difluorophenyl)azetidin-3-yl)carbamate] are greater than 80% and no more than 100 nM.
`CN(CC1CC1)C(=O)C12CC(OC(=O)NC3CN(c4cc(F)c(C5CCC(=O)NC5=O)c(F)c4)C3)(C1)C2` (stereo not shown) [Compound 82, 3-((cyclopropylmethyl)(methyl)carbamoyl)bicyclo[1.1.1]pentan-1-yl (1-(4-(2,6-dioxopiperidin-3-yl)-3,5-difluorophenyl)azetidin-3-yl)carbamate] gave a maximal degradation (Dmax) at CDK2 greater than 80%. Moreover, the Ki on CRBN-DDB1 is no more than 100 nM.
For the compound `O=C1CCC(c2c(F)cc(N3CC(NC(=O)OC4CN(c5ccccn5)C4)C3)cc2F)C(=O)N1` (stereo not shown) [Compound 83, 1-(pyridin-2-yl)azetidin-3-yl (1-(4-(2,6-dioxopiperidin-3-yl)-3,5-difluorophenyl)azetidin-3-yl)carbamate], the Dmax on CDK2 lay in the range of 50 to 80%. The Ki on CRBN-DDB1 was no more than 100 nM.
Turning to `O=C1CCC(c2c(F)cc(N3CC(NC(=O)OCC#CC4CC4)C3)cc2F)C(=O)N1` (stereo not shown) [Compound 84, 3-cyclopropylprop-2-yn-1-yl (1-(4-(2,6-dioxopiperidin-3-yl)-3,5-difluorophenyl)azetidin-3-yl)carbamate], the Dmax at CDK2 was in the range of 10 to 50%. This compound also yielded a Ki on CRBN-DDB1 of no more than 100 nM.
